Key:
MDSC = details: mice, reference (11); cited from earlier work
CRC-derived MDSC = test: Ex vivo GM-CSF mediated myeloid-cell differentiation; type: cell-based, mouse; details: 10 ng/ml GM-CSF, 72 h, vs GM-CSF only
T-cells [1] = test: CFSE T-cell proliferation assay, splenocytes of CRC-mice; type: in vivo, mouse; details: CFSE-labeled Thy1.2^+ T-cells, TCR-CD28 mediated activation, vs untreated CRC-mice
Procedure: Splenocytes or purified T-cells isolated by a magnetic column separation system (Miltenyi Biotec) were labeled with […] CFSE (Invitrogen) and subjected to TCR-mediated activation as previously described (16). Next, the effect of the given chemotherapies on the immune status was evaluated. This was performed by testing the function of the whole T-cell population (FIG. 9J) as well as the CD8^+ T-cells (FIG. 9K) in all experimental groups along with measurements of the expression levels of CD247 in CD3^+ (FIG. 9L) and in CD8^+ T-cells (FIG. 9M). T-cell proliferative response was assessed by monitoring cell divisions of gated CFSE-labeled Thy1.2^+ (CD90^+) T-cells upon TCR-CD28 mediated activation.

S100A8/9 = details: MDSCs from spleen of CRC-mice
Procedure: Cells isolated from the spleen or colon were analyzed by Western blotting for the expression of various proteins as previously described (16). The antibodies used for immunoblotting were: anti-S100A9, anti-S100A8, and anti-αTubulin. Specific antibodies were detected by anti-rabbit or anti-goat antibodies conjugated to horseradish peroxidase (Jackson Immunoresearch), followed by enhanced chemiluminescence and exposure at blotting reader (Bio-Rad software).
(§4) For that purpose the expression of the S100A8/9 pro-inflammatory proteins was assessed.

[2] = system: MDSCs isolated from spleens of CRC mice; test: Cleaved caspase-3 in ex vivo cultured MDSCs, DCs and macrophages; type: cell-based, mouse
Gr1^+CD11b^+ MDSCs = test: MDSC accumulation in colon, spleen and PBLs of CRC-mice; type: in vivo, mouse
CD247 [3] = test: BCG chronic inflammation mouse model: CD247 expression in T-cells; type: in vivo; details: spleen and PBLs of inflamed mice
Procedure: (§1) Mice were injected intraperitoneally with 10 mg/kg body weight of Azoxymethan (AOM, purchased from Sigma-Aldrich (St. Louis, Mo., USA)) dissolved in physiological saline twice in two weeks intervals. Two weeks later, 2% dextran sulfate sodium (DSS, purchased from MP biochemicals Inc. (Santa Ana, Calif., USA)) was given in the drinking water over 7 days, followed by 14 days of regular water (15). This cycle was repeated twice. Animals were sacrificed and analyzed three weeks after the last treatment. To induce a pathology-free chronic inflammation, a previously described protocol subjecting mice to heat-killed Mycobacterium […] (BCG) treatment (16) was used.
(§2) Next, it was assessed whether the 5FU and CPT11 opposite effects on MDSCs have different impacts on the host's immune competence. […] Since NK-cell activity is mediated via natural cytotoxicity receptors (NCRs), which associate with and depend on CD247, NK-cell in vivo function was assessed by monitoring the clearance of adoptively transferred allogeneic cells.

MDSCs [4] = test: NO^− and ROS production by MDSCs of treated CRC-mice (flow cytometry); type: in vivo, mouse
Procedure: Three weeks after the second DSS treatment mice were sacrificed and spleens were analyzed.

CD247 [5] = test: CD247 expression in T-cells of CRC-mice; type: in vivo, mouse; details: splenocytes of CRC-mice
Procedure: Next, the effect of the given chemotherapies on the immune status was evaluated. This was performed by testing the function of the whole T-cell population (FIG. 9J) as well as the CD8^+ T-cells (FIG. 9K) in all experimental groups along with measurements of the expression levels of CD247 in CD3^+ (FIG. 9L) and in CD8^+ T-cells (FIG. 9M). T-cell proliferative response was assessed by monitoring cell divisions of gated CFSE-labeled Thy1.2^+ (CD90^+) T-cells upon TCR-CD28 mediated activation.

cleaved caspase-3 [6] = test: BCG chronic inflammation mouse model: cleaved caspase-3 in MDSCs; type: in vivo; details: compared to inflamed-untreated mice
T-cells [7] = test: BCG chronic inflammation mouse model: T-cell proliferation; type: in vivo; details: splenocytes of inflamed mice
Procedure: as §1
Splenocytes or purified T-cells isolated by a magnetic column separation system (Miltenyi Biotec) were labeled with […] CFSE (Invitrogen) and subjected to TCR-mediated activation as previously described (16).
as §2

[8] = system: MDSCs isolated from spleens of CRC-mice; test: NO^− and ROS production in ex vivo cultured MDSCs; type: cell-based, mouse; details: 2.5 μmol/L, 24 h
TNFα, S100A9 = test: TNFα and S100A9 mRNA in ex vivo cultured MDSCs (Real Time PCR); type: cell-based, mouse; details: 3 days
CD247 [9] = test: BCG chronic inflammation mouse model: CD247 expression in NK-cells; type: in vivo; details: chronically inflamed mice
Procedure: as §1, §2

MDSCs [10] = test: Myeloid cell differentiation in vivo in CRC-mice
Procedure: Isolated mouse splenocytes and peripheral blood lymphocytes (PBLs) were subjected to cell surface staining as previously described (16), using the following antibodies (Biolegend): FITC-labeled anti-Gr1, and anti-CD11c; PE-labeled anti-F4/80, anti-CD3s, and anti-mNKp46; and biotinylated anti-CD11b detected with streptavidin-Cy5. Intracellular staining for CD247 was performed as previously described (16) by using FITC-labeled anti-CD247 or biotinylated anti-CD247 (lone H146), the latter detected with streptavidin-Cy5. Foxp3 staining was performed according to the manufacturer's instructions (Miltenyi Biotec). Cleaved caspase-3 staining was performed using primary Rabbit anti-cleaved caspase-3 (Cell Signaling Technology, Asp175) and secondary FITC-horse anti-Rabbit antibody (Thermo Scientific).
as §4

MDSCs [11] = test: BCG chronic inflammation mouse model: MDSC levels; type: in vivo; details: PBLs and spleen, compared to inflamed-untreated mice
Procedure: as §1
(§3) Next, the immunoregulatory effects of 5FU and CPT11 were examined in a mouse model for chronic inflammation and associated immunosuppression (10), as described in the materials and method section above and in FIG. 13A. This experiment was performed in order to investigate whether the differential effects of the drugs are related to the presence of the tumor. Briefly, the mouse model for chronic inflammation was established by three repeated injections of heat-killed BCG bacteria. A day after the second BCG injection, mice were treated twice a week with 5FU, CPT11 or a 5FU/CPT11 combination. […] No changes in CD4^+Foxp3^+ Tregs percentage were detected (FIG. 13H), confirming that these chemotherapies specifically affect MDSCs.

NK-cells = test: BCG chronic inflammation mouse model: NK-cell mediated clearance of allogeneic cells; type: in vivo; details: spleen and PBLs of inflamed mice
MDSCs [12] = test: BCG chronic inflammation mouse model: ROS and NO^− production by MDSCs; type: in vivo; details: splenic MDSCs, compared to inflamed-untreated mice
Procedure: as §1, §3

cleaved caspase-3 [13] = test: Cleaved caspase-3 in splenic MDSCs of treated CRC-mice; type: in vivo, mouse
Procedure: Cleaved caspase-3 staining was performed using primary Rabbit anti-cleaved caspase-3 (Cell Signaling Technology, Asp175) and secondary FITC-horse anti-Rabbit antibody (Thermo Scientific).
Therefore, Splenic MDSCs from each group were analyzed for the expression of activated (cleaved) caspase-3 by flow cytometry analysis. […] Cleaved caspase-3 levels were then evaluated on the primary MDSCs, differentiated CD11c^+CD11b^+DCs and F4/80^+CD11b^+ macrophages.

## O=c1[nH]cc(F)c(=O)[nH]1 [5FU, 5-fluoruracil]
MDSC
  MDSC apoptosis and tumor regression: selective MDSC apoptosis and tumor regression
CRC-derived MDSC
  GM-CSF mediated CRC-derived MDSC differentiation: enabled MDSC differentiation to DCs and macrophages
T-cells [1]
  T-cell proliferative ability: did not affect T-cell proliferation
S100A8/9
  S100A8/9 mRNA and protein levels: significant decrease in S100A8/9 mRNA and protein levels
[2]; ex vivo, 10 ng/ml GM-CSF, 0, 1.25, 2.5, and 5, 3 days
  5FU-induced apoptosis (cleaved caspase-3), DCs and macrophages: insensitive
[2]; ex vivo, 10 ng/ml GM-CSF, 0, 1.25, 2.5, and 5 mol/L, 3 days
  5FU-induced apoptosis (cleaved caspase-3), primary MDSCs: evident only in non-differentiated MDSCs
[2]; ex vivo, 2.5, 3 days, monocytic population more sensitive
  cleaved caspase-3 expression (MFI) in monocytic and granulocytic MDSCs: enhanced cleaved caspase-3 expression
[2]; ex vivo, various doses, 3 days, dose-dependent
  cleaved caspase-3 in purified cultured MDSCs: cleaved caspase-3 up-regulation
CRC-mice; monotherapy for three weeks, vs untreated CRC mice
  tumor load within the colon (hematoxylin-eosin histopathology): decreased tumor load and recovery of colon architecture
CRC-mice; three weeks after second DSS treatment
  histopathological analysis of colon sections (hematoxylin-eosin): only few aberrant crypt foci and tumors
Gr1^+CD11b^+ MDSCs; lamina propria and epithelium, flow cytometry, vs untreated CRC-mice
  MDSC numbers / infiltration in colon: significantly reduced MDSC infiltration
Gr1^+CD11b^+ MDSCs; vs untreated, CPT11 or 5FU/CPT11 treated CRC-mice
  MDSC numbers in spleens: significantly decreased MDSC numbers
CD247 [3]
  CD247 expression in T-cells: significant recovery of CD247 expression
MDSCs [4]; lamina propria and epithelial MDSCs, vs untreated CRC mice
  NO^− production: significant reduction of NO^− production
MDSCs [4]; splenic MDSCs, compared to untreated CRC-mice
  NO^− and ROS production: significantly reduced NO^− and ROS production
CD247 [5]
  CD247 expression levels in T-cells: elevated levels
Cleaved caspase-3 [6]
  cleaved caspase-3 levels: elevated cleaved caspase-3 levels
T-cells [7]
  T-cell proliferation: significant recovery
[8]
  NO^− or ROS production in purified cultured MDSCs: did not alter NO^− or ROS production
TNFα, S100A9
  mRNA levels of TNFα and S100A9: decreased levels of these factors
CD247 [9]
  CD247 expression in NK-cells: almost completely recovered
MDSCs [10]
  matured antigen presenting cells (CD80 and MHCII expression): induced CD80 and MHCII expression
  myeloid cell differentiation in vivo (DCs and macrophages): significant shift towards differentiated DCs and macrophages
MDSCs [11]
  MDSC levels: significantly reduced MDSC levels
NK-cells
  NK-cell activity (clearance of adoptively transferred allogeneic cells): complete recovery of NK-cell activity
MDSCs [12]
  ROS and NO^− production: significantly reduced
Cleaved caspase-3 [13]
  cleaved caspase-3 expression in spleen MDSCs: significant increased cleaved caspase-3 expression
